US10675239B2, “Vegetable extract to prevent and treat hair loss” (GIULIANI S.P.A., priority 2017, dated 2020)

Key:
Type in all cases: cell-based, mouse
[1] = tested on: 5 alpha-reductase isoform 2 (SRD5A2); test: Gene expression of isoform 2 of 5 alpha-reductase (SRD5A2) in BALB3T3 cells by qRT-PCR; settings: 0.05 mg/mL, 24 h, relative expression 2^-ΔΔCt vs β-actin, Ctr = 1
Method: Effects of Galeopsis segetum and Galeopsis tetrahit Study on the Activity of 5 Alpha-Reductase (Isoform 2)-BALB3T3
The gene expression of the isoform 2 of 5 alpha-reductase (SRD5A2) in BALB3T3 cells was evaluated by relative quantitative RT-PCR (quantitative reverse transcription polymerase chain reaction-qRT-PCR).
This analysis has foreseen 3 sequential phases: • Total RNA extraction; • Reverse transcription in cDNA; • qRT-PCR.
BALB3T3 murine fibroblasts were seeded in 12-well plates at a density of 0.5*10^6 cells/well and incubated until about 80% confluence was achieved.
Subsequently, the cells were incubated for 24 hours with Galeopsis segetum and Galeopsis tetrahit (vegetable biomass and dry hydro-alcoholic sample) at the following concentrations: 20-50 and 100 μg/ml. […]
At the end of the incubation with the active compounds of interest, cells were washed with PBS (1×) and finally subjected to the RNA extraction procedure. At the end of the extraction, using a spectrophotometer (Jenway UV/VIS MOD: 6715, BS-6715B0), the concentrations in μg/ml of total RNA extracted at the wavelength of 260 nm were calculated. Finally, the integrity of RNA (2 μg/ml) by electrophoretic run on 1% agarose gel was evaluated. […]
The extracted and quantified RNA was diluted to a concentration of 2 μg/ml and retro-transcripted in cDNA. […]
Assuming a 100% amplification efficiency, the 2^−ΔΔCt was calculated.

[2] = tested on: ROS production in the BALB3T3 murine fibroblast cell line; test: ROS intracellular production (DCFH-DA assay)-BALB3T3; settings: 25 μM, 16 h pretreatment, then 1 mM H2O2 90 min; ctr + H2O2 = 100
Method: Study of the Effects of Galeopsis segetum and Galeopsis tetrahit and on ROS Production Using a DCFH-DA-BALB3T3 Assay
The ROS production in the BALB3T3 murine fibroblast cell line was determined by spectrophotometer using the 2,7-dichlorofluorescein-diacetate (DCFH-DA) assay, as described by Tobi et al. (Tobi et al., 2000).
DCFH-DA is a non-fluorescent compound in lipophilic form, able to spread through the cell membrane. Once inside the cell, it is deacetylated by the intracellular esterases to reduced 2,7-dichlorofluorescein (DCFH), which is also non-fluorescent. DCFH, unable to cross again the cell membrane, eventually ends up accumulating in the cells (Curtin et al., 2002). The intracellular ROS reaction leads to the oxidation of 2.7-dichlorofluorescein (DCF) DCFH, a highly fluorescent compound. This fluorescence intensity can be detected with a fluorimeter, allowing estimating the amount of ROS produced in the cells.
[…]
Subsequently, the lysates were transferred in a 96-well black plate and the fluorescence of DCF was read spectrofluorimetrically using a FluoroskanAscent FL Microplate Fluorescence Reader (Thermo Fisher ScientificInc., Waltham, Mass., USA), with excitation and emission wavelengths of 485 and 538 nm respectively. […]

[3] = tested on: BALB3T3 murine fibroblasts stressed with H2O2; test: MTT with induced oxidative stress-BALB3T3; settings: 50 μM, pretreatment, then 1 mM H2O2 90 min; non-stressed ctr = 100, Ctr + H2O2 = 58.43
Source text: MTT with Induced Oxidative Stress-BALB3T3
BALB3T3 mouse fibroblasts are one of the validated models for studies of oxidative stress in vitro (Subirade et al., 1995; Kutuk et al., 2004).
Studies conducted in 2005 by Rajapakse and coworkers (2005) highlighted the possibility of exploiting a highly used and versatile method such as that of the MTT assay for the in vitro study antioxidant activity of active compounds. Specifically, through this method it is possible to study the protective effects of these compounds on cells subsequently subjected to oxidative stress. The induction of oxidative stress is carried out by incubation with hydrogen peroxide, an agent that induces the production of oxidative damage in the cells through ROS formation. The possible protective effects can be determined through the assessment of cell viability after oxidative stress of the pre-treated/pre-exposed cells to the active compounds to be tested, in comparison with cells subjected to the same oxidative stress. […]
Once the oxidation stress induction phase was completed, the cell viability of the various samples was evaluated, according to the method described in point 4.1.2 (assay with MTT).
The data were expressed as a percentage of cell viability compared to non-stressed control cells (ctr), according to the following formula: % cell viability/ctr=(Sample Abs/ctr Abs)*100 […]

SMILES	mRNA SERD5A2 [1]	% ROS [2] [%]	% cells viability [3] [%]
CC(C)(C)NC(=O)[C@H]1CC[C@H]2[C@@H]3CC[C@H]4NC(=O)C=C[C@]4(C)[C@H]3CC[C@]12C [finasteride]	0.31		
Cc1c(C)c2c(c(C)c1O)CC[C@@](C)(CCC[C@H](C)CCC[C@H](C)CCCC(C)C)O2 [α-tocopherol]		39.67	78.37
